Experimental data reported in ChEMBL document CHEMBL1157423, “Structural and stereochemical studies of alpha-methylene-gamma-lactone-bearing cembrane diterpenoids from a south china sea soft coral Lobophytum crassum” (2008).

Columns and labels:
[1] = test system: A549; experiment: Cytotoxicity against human A549 cells at 10 uM/L; type: functional; conditions: read-out: GI
[2] = test system: P388; experiment: Cytotoxicity against mouse P388 cells at 10 uM/L; type: functional; conditions: read-out: GI

Molecule `C=C1C(=O)O[C@H]2C/C(C)=C/CC/C(C)=C/CC/C(CO)=C/C[C@H]12` [3-DEHYDROXYLPRESINULAROLIDE B] has an inhibition of growth at 10 µM [1] of 95.7% and an inhibition of growth at 10 µM [2] of 100%.
`C=C1C(=O)O[C@@H]2[C@@H]1C/C=C(\CO)CC/C=C(\C)CC/C=C(\C)[C@H]2O` [PRESINULAROLIDE B] showed an inhibition of growth at 10 µM [1] of 64%.
`C=C1C(=O)O[C@@H]2[C@@H]1C[C@H]1O[C@]1(CO)CC/C=C(\C)CC/C=C(\C)[C@H]2O` [SINULAROLIDE B] was tested, and the inhibition of growth at 10 µM [2] was 100%.
`C=C1C(=O)O[C@@H]2[C@@H]1C[C@H]1O[C@]1(CO)CC/C=C(\C)CC/C=C(\C)[C@@H]2O` [SINULAROLIDE C] was tested, and the inhibition of growth at 10 µM [2] was 63.8%.
